US12428428B2, “Tricyclic tetrahydroisoquinoline derivative, preparation method therefor and application thereof in medicine” (JIANGSU HENGRUI MEDICINE CO., LTD., priority 2020, dated 2025)

Columns and labels:
[1] = tested on: ERα Y537S mutant-expressing MCF7 cells; test: Inhibition of proliferation of ERα mutant-expressing MCF7 cells; type: cell-based; conditions: Homo sapiens, 144 h
Excerpt: The mutant estrogen receptor α (ERα) Y537S of human ERα protein was obtained by site-directed mutagenesis in a two-primer PCR manner using the cDNA of wild-type ESR1 gene (Accession No. NM000125) as a template. The sequences of the primers used in the mutation are as follows (the underlined nucleotides are the sites of mutation): Y537S: F-AAGAACGTGGTGCCCCTCTCTGACCTGCTGCTGGAGATG (SEQ ID NO: 1); R-CATCTCCAGCAGCAGGTCAGAGAGGGGCACCACGTTCTT (SEQ ID NO: 2). The cDNA of the mutant ESR1 was cloned into the lentiviral vector of interest pCDH-CMV-MCS-EF1-Puro. The lentiviral plasmid bearing the mutant ESR1 gene sequence and the lentiviral packaging plasmid were then transfected into HEK-293T cells (ATCC, CRL-3216) by using Lipofectamine 3000 Transfection Reagent (ThermoFisher Scientific, Cat #L3000075). Forty-eight hours after transfection, the virus-bearing medium supernatant was filtered and ultracentrifuged to obtain a virus precipitate, which was then resuspended in an appropriate amount of medium. The suspension was added to MCF7 cells (ATCC, HTB-22), followed by the addition of polybrene at a final concentration of 8 μg/mL. The mixture was incubated overnight. Two days after transfection, 1 μg/mL puromycin was added to the cell culture liquid for resistance screening. About two weeks later, an MCF7 cell line capable of stably expressing the ERαY537S mutant was obtained.
The ERα mutant-expressing MCF7 cells were cultured in an MEM (GE Healthcare, SH30024.01) complete medium containing 10% fetal bovine serum. On the first day of the experiment, the cells were seeded into a 96-well plate with complete medium at a density of 3,000 cells/well to form 100 μL of cell suspension per well. The plate was incubated overnight in a cell incubator at 37° C. with 5% CO2. The following day the medium was removed, and 135 μL of an MEM incomplete medium containing 2% fetal bovine serum, and 15 μL of a test compound prepared at different concentrations with the incomplete medium were added to each well. The final concentrations of the compound were 9 concentration points obtained by 4-fold serial dilution from 100 nM. A blank control containing 0.5% DMSO was set. The plate was incubated in a cell incubator at 37° C. with 5% CO2 for 144 h. On day 8, the 96-well cell culture plate was taken out. 150 μL of CellTiter-Glo® Luminescent Cell Viability Assay (Promega, G7573) was added to each well. The plate was let stand at room temperature for 10 min, and the luminescence signal values was read using a multilabel microplate reader (PerkinElmer, VICTOR 3). The IC50 values for the inhibitory activity of the compounds were calculated according to the compound concentrations and the luminescence signal values and are shown in Table 3.

CYP3A4 = CYP3A4 (Homo sapiens (Human), UniProt P08684); test: Inhibition of site of metabolism of midazolam in human liver microsome CYP3A4; type: in vitro ADME; conditions: midazolam substrate
Chain of CYP3A4 (P08684 whole entry): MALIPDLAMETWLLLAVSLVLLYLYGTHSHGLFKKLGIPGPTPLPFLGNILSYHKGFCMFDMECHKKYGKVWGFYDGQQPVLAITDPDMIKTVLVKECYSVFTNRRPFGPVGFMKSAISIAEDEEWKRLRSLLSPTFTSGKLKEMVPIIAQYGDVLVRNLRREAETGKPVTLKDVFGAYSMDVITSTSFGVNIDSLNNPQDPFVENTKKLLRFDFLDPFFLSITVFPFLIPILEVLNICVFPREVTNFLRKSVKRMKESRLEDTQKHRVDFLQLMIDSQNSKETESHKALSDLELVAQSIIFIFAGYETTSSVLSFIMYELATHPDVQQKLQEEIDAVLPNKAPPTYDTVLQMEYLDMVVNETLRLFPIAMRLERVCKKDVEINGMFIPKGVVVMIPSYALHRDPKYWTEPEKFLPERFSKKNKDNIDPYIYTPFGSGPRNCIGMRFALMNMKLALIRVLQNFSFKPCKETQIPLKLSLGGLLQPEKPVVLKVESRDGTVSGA
Description: • 1. Phosphate buffer (20×PBS, purchased from Sangon); • 2. NADPH (ACROS, A2646-71-1); • 3. Human liver microsome (Corning Gentest, Cat No, 452161, Lot No. 9050002, Donor, 36); • 4. ABI QTrap 4000 LC-MS System (AB Sciex); • 5. ZORBAX Extend-C18, 3×50 mm, 3.5 μm (Agilent, USA); • 6. CYP probe substrate (midazolam, TRC, M343000/3 μM) and positive control inhibitor (ketoconazole, SIGMA, Cat No. K1003-100MG).
A 100 mM PBS buffer was prepared. A 0.25 mg/mL microsome solution, a 7.5 mM MgCl2 and a 5 mM NADPH solution were prepared using the buffer. A 30 mM stock solution was diluted with DMSO to obtain 30 mM, 10 mM, 3 mM, 1 mM, 0.3 mM, 0.03 mM, 0.003 mM and 0 mM serial solutions I, which were further diluted 200-fold with phosphate buffer (PBS) to obtain serial test solutions II (150, 50, 15, 5, 1.5, 0.15, 0.015 and 0 μM). A midazolam working solution was diluted with PBS to 15 μM.
40 μL of a 0.25 mg/mL microsome solution prepared in 7.5 mM MgCl2 and 20 μL of each of the 15 μM midazolam working solution and the compound working solutions (150, 50, 15, 5, 1.5, 0.15, 0.015 and 0 μM) were measured out and well mixed. Ketoconazole at the same concentration was used in place of the compounds as a positive control group. The mixtures were pre-incubated with 5 mM NADPH solution at 37° C. for 5 min at the same time. After 5 minutes, 20 μL of NADPH was added to each well to start reactions. The mixtures were incubated for 30 min. Duplicate samples were set for all of the incubated samples. After 30 minutes, 250 μL of internal standard-containing acetonitrile was added to all the samples. The mixtures were well mixed, shaken at 800 rpm for 10 min, and then centrifuged at 3700 rpm for 10 min. 100 μL of the supernatant and 80 μL of ultrapure water were well mixed and subjected to LC-MS/MS analysis.
The IC50 values of the drugs for the site of metabolism of midazolam in CYP3A4 were calculated using Graphpad Prism and are shown in Table 5.

| Structure (SMILES) | IC50 [1] | IC50 (CYP3A4) |
| --- | --- | --- |
| C[C@@H]1Cc2cc3c(cc2[C@@H](c2ccc(N[C@H]4CCN(CCCF)C4)cc2)N1CC(F)(F)F)OCO3 [Example 1, (S)-1-(3-fluoropropyl)-N-(4-((5R,7R)-7-methyl-6-(2,2,2-trifluoroethyl)-5,6,7,8-tetrahydro-[1,3]dioxolo[4,5-g]isoquinolin-5-yl)phenyl)pyrrolidin-3-amine] | 1.38 nM | 15.8 µM |
| C[C@@H]1Cc2cc3c(cc2[C@@H](c2c(F)cc(N[C@H]4CCN(CCCF)C4)cc2F)N1CC(F)(F)F)OCO3 [Example 2, (S)—N-(3,5-difluoro-4-((5S,7R)-7-methyl-6-(2,2,2-trifluoroethyl)-5,6,7,8-tetrahydro-[1,3]dioxolo[4,5-g]isoquinolin-5-yl)phenyl)-1-(3-fluoropropyl)pyrrolidin-3-amine] | 0.78 nM | > 30 µM |
| C[C@@H]1Cc2cc3c(cc2[C@@H](c2ccc(N[C@H]4CCN(CCCF)C4)cc2)N1CC(F)(F)CO)OCO3 [Example 3, 2,2-Difluoro-3-((5R,7R)-5-(4-(((S)-1-(3-fluoropropyl)pyrrolidin-3-yl)amino)phenyl)-7-methyl-7,8-dihydro-[1,3]dioxolo[4,5-g]isoquinolin-6(5H)-yl)propan-1-ol] | 0.43 nM | 10 µM |
| C[C@@H]1Cc2cc3c(cc2[C@@H](c2ccc(N[C@H]4CCN(CCCF)C4)cn2)N1CC(F)(F)CO)OCO3 [Example 4, 2,2-Difluoro-3-((5S,7R)-5-(5-(((S)-1-(3-fluoropropyl)pyrrolidin-3-yl)amino)pyridin-2-yl)-7-methyl-7,8-dihydro-[1,3]dioxolo[4,5-g]isoquinolin-6(5H)-yl)propan-1-ol] | 0.89 nM | – |
| C[C@@H]1Cc2cc3c(cc2[C@@H](c2c(F)cc(N[C@H]4CCN(CCCF)C4)cc2F)N1CC(F)(F)CO)OCO3 [Example 5, 3-((5S,7R)-5-(2,6-difluoro-4-(((S)-1-(3-fluoropropyl)pyrrolidin-3-yl)amino)phenyl)-7-methyl-7,8-dihydro-[1,3]dioxolo[4,5-g]isoquinolin-6(5H)-yl)-2,2-difluoro-1-propanol] | 0.07 nM | – |
| C[C@@H]1Cc2cc3c(cc2[C@@H](c2ccc(N[C@H]4CCN(CCCF)C4)cn2)N1CC(F)(F)F)OCO3 [Example 6, N—((S)-1-(3-fluoropropyl)pyrrolidin-3-yl)-6-((5S,7R)-7-methyl-6-(2,2,2-trifluoroethyl)-5,6,7,8-tetrahydro-[1,3]dioxolo[4,5-g]isoquinolin-5-yl)pyridin-3-amine] | 0.82 nM | – |
| C[C@@H]1Cc2cc3c(cc2[C@@H](c2ncc(N[C@H]4CCN(CCCF)C4)cc2F)N1CC(F)(F)F)OCO3 [Example 9, 5-Fluoro-N—((S)-1-(3-fluoropropyl)pyrrolidin-3-yl)-6-((5S,7R)-7-methyl-6-(2,2,2-trifluoroethyl)-5,6,7,8-tetrahydro-[1,3]dioxolo[4,5-g]isoquinolin-5-yl)pyridin-3-amine] | 1.35 nM | – |
| C[C@@H]1Cc2cc3c(cc2[C@@H](c2ncc(N[C@H]4CCN(CCCF)C4)cc2F)N1CC(F)(F)CO)OCO3 [Example 11, 2,2-Difluoro-3-((5S,7R)-5-(3-fluoro-5-(((S)-1-(3-fluoropropyl)pyrrolidin-3-yl)amino)pyridin-2-yl)-7-methyl-7,8-dihydro-[1,3]dioxolo[4,5-g]isoquinolin-6(5H)-yl)propan-1-ol] | 0.71 nM | – |
| [2H]C1([2H])Oc2cc3c(cc2O1)[C@@H](c1ccc(N[C@H]2CCN(CCCF)C2)cn1)N(CC(F)(F)CO)[C@H](C)C3 [Example 12, 2,2-Difluoro-3-((5S,7R)-5-(5-(((S)-1-(3-fluoropropyl)pyrrolidin-3-yl)amino)pyridin-2-yl)-7-methyl-7,8-dihydro-[1,3]dioxolo[4,5-g]isoquinolin-6(5H)-yl-2,2-d2)propan-1-ol] | 3.49 nM | 8.18 µM |
| [2H]C1([2H])Oc2cc3c(cc2O1)[C@@H](c1ccc(NC2CN(CCCF)C2)cn1)N(CC(F)(F)CO)[C@H](C)C3 [Example 13, 2,2-Difluoro-3-((5S,7R)-5-(5-((1-(3-fluoropropyl)azetidin-3-yl)amino)pyridin-2-yl)-7-methyl-7,8-dihydro-[1,3]dioxolo[4,5-g]isoquinolin-6(5H)-yl-2,2-d2)propan-1-ol] | 1.36 nM | – |
| C[C@@H]1Cc2cc3c(cc2[C@@H](c2ccc(NC4CN(CCCF)C4)cn2)N1CC(F)(F)CO)OCO3 [Example 14, 2,2-Difluoro-3-((5S,7R)-5-(5-((1-(3-fluoropropyl)azetidin-3-yl)amino)pyridin-2-yl)-7-methyl-7,8-dihydro-[1,3]dioxolo[4,5-g]isoquinolin-6(5H)-yl)propan-1-ol] | 1.27 nM | – |
| C[C@@H]1Cc2cc3c(cc2[C@@H](c2c(F)cc(O[C@H]4CCN(CCCF)C4)cc2F)N1CC(F)(F)F)OCO3 [Example 15, (5S,7R)-5-(2,6-difluoro-4-(((S)-1-(3-fluoropropyl)pyrrolidin-3-yl)oxy)phenyl)-7-methyl-6-(2,2,2-trifluoroethyl)-5,6,7,8-tetrahydro-[1,3]dioxolo[4,5-g]isoquinoline] | 0.68 nM | – |
| C[C@@H]1Cc2cc3c(cc2[C@@H](c2ccc(NC4CN(CCCF)C4)cn2)N1CC(F)(F)F)OCO3 [Example 17, N-(1-(3-fluoropropyl)azetidin-3-yl)-6-((5S,7R)-7-methyl-6-(2,2,2-trifluoroethyl)-5,6,7,8-tetrahydro-[1,3]dioxolo[4,5-g]isoquinolin-5-yl)pyridin-3-amine] | 2.19 nM | – |
| C[C@@H]1Cc2cc3c(cc2[C@@H](c2ccc(NC4CN(CCCF)C4)cc2)N1CC(F)(F)CO)OCO3 [Example 18, 2,2-Difluoro-3-((5R,7R)-5-(4-((1-(3-fluoropropyl)azetidin-3-yl)amino)phenyl)-7-methyl-7,8-dihydro-[1,3]dioxolo[4,5-g]isoquinolin-6(5H)-yl)propan-1-ol] | 0.25 nM | – |
| [2H]C1([2H])Oc2cc3c(cc2O1)[C@@H](c1ccc(N[C@H]2CCN(CCCF)C2)cc1)N(CC(F)(F)CO)[C@H](C)C3 [Example 19, 2,2-Difluoro-3-((5R,7R)-5-(4-(((S)-1-(3-fluoropropyl)pyrrolidin-3-yl)amino)phenyl)-7-methyl-7,8-dihydro-[1,3]dioxolo[4,5-g]isoquinolin-6(5H)-yl-2,2-d2)propan-1-ol] | 0.43 nM | – |
